Test results published in patent US8604033B2, “Preparation of 4-amino-thiazoles and 3-amino-1,2,4-thiadiazoles and their use as allosteric modulators of metabotropic glutamate receptors” (Addex Pharma S.A., priority 2010, dated 2013).
“And” between values parts separate entries of the source, which are not always exact repeats. Equal values may be shown once.

How the values were obtained:
[1] = biological target: T1, recombinant human mGluR4a receptors (Homo sapiens, UniProt Q14833); test: mGluR4 assay on HEK-expressing human mGluR4 (fluorescent cell based Ca2+ mobilization assay, FLIPR); conditions: HEK-293 cells expressing hmGluR4; enhancement of EC25 glutamate response; mean of at least three independent experiments in duplicate; read-out: Ca^2+ Flux (mean EC50)
T1 construct: expressed in transfected cells
T1 sequence (Q14833 33-912): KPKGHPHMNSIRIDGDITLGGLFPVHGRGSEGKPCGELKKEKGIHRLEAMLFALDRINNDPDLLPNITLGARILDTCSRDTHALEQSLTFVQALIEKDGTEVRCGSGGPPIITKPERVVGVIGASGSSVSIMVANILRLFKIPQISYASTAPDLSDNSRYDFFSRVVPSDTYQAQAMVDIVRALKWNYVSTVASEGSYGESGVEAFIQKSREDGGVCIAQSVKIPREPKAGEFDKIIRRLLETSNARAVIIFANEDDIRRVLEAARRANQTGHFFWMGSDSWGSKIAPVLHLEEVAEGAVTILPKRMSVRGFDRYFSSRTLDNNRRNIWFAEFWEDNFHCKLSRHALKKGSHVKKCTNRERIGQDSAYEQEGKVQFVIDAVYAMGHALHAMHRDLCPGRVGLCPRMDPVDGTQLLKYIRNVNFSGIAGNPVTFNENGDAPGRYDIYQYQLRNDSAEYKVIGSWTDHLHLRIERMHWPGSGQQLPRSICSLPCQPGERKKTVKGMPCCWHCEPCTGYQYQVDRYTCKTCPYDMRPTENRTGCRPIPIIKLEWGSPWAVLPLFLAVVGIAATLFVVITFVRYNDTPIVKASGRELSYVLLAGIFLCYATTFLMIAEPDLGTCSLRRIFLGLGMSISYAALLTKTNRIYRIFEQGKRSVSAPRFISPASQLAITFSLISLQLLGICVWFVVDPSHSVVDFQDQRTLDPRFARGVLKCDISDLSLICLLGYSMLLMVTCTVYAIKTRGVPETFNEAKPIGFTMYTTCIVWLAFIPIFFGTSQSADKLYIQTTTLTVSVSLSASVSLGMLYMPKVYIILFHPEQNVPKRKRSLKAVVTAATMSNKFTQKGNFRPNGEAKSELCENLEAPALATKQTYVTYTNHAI
Excerpt: mGluR4 Assay on HEK-Expressing Human mGluR4 The compounds of the present invention are positive allosteric modulators of mGluR4 receptor. Their activity was examined on recombinant human mGluR4a receptors by detecting changes in intracellular Ca^2+ concentration, using the fluorescent Ca^2+-sensitive dye Fluo4-(AM) and a Fluorometric Imaging Plate Reader (FLIPR, Molecular Devices, Sunnyvale, Calif.). The cDNA encoding the human metabotropic glutamate receptor (hmGluR4), (accession number NM_000841.1, NCBI Nucleotide database browser), was subcloned into an expression vector containing also the hygromycin resistance gene. In parallel, the cDNA encoding a G protein allowing redirection of the activation signal to intracellular calcium flux was subcloned into a different expression vector containing also the puromycin resistance gene. Transfection of both these vectors into HEK293 cells with PolyFect reagent (Qiagen) according to supplier's protocol, and hygromycin and puromycin treatment allowed selection of antibiotic resistant cells which had integrated stably one or more copies of the plasmids. Positive cellular clones expressing hmGluR4 were identified in a functional assay measuring changes in calcium fluxes in response to glutamate or selective known mGluR4 orthosteric agonists and antagonists. HEK-293 cells expressing hmGluR4 were maintained in media containing DMEM, dialyzed Fetal Calf Serum (10%), Glutamax™ (2 mM), Penicillin (100 units/mL), Streptomycin (100 μg/mL), Geneticin (100 μg/mL) and Hygromycin-B (40 μg/mL) and puromycin (1 μg/mL) at 37° C./5% CO2. Human mGluR4HEK-293 cells were plated out 24 hours prior to FLIPR^384 assay in black-walled, clear-bottomed, poly-L-ornithine-coated 384-well plates at a density of 25,000 cells/well in a glutamine/glutamate free DMEM medium containing foetal bovine serum (10%), penicillin (100 units/mL) and streptomycin (100 μg/mL) at 37° C./5% CO2. On the day of the assay, the medium was aspirated and the cells were loaded with a 3 μM solution of Fluo4-AM (LuBioScience, Lucerne, Switzerland) in 0.03% pluronic acid. After 1 hour at 37° C./5% CO2, the non incorporated dye was removed by washing cell plate with the assay buffer and the cells were left in the dark at room temperature for […] before testing. All assays were performed in a pH 7.4 buffered-solution containing 20 mM HEPES, 143 mM NaCl, 6 mM KCl, 1 mM MgSO4, 1 mM CaCl2, 0.125 mM sulfapyrazone and 0.1% glucose. After 10 s of basal fluorescence recording, various concentrations of the compounds of the invention were added to the cells. Changes in fluorescence levels were first monitored for 180 s in order to detect any agonist activity of the compounds. Then the cells were stimulated by an EC25 glutamate concentration for an additional 110 s in order to measure enhancing activities of the compounds of the invention. EC25 glutamate concentration is the concentration giving 25% of the maximal glutamate response. The concentration-response curves of representative compounds of the present invention were generated using the Prism GraphPad software (Graph Pad Inc, San Diego, USA). The curves were fitted to a four-parameter logistic equation: (Y=Bottom+(Top−Bottom)/(1+10^((Log EC50−X)*Hill Slope) allowing the determination of EC50 values. The Table 3 below represents the mean EC50 obtained from at least three independent experiments of selected molecules performed in duplicate.

EC50 [1] [µM] | melting point | Structure (SMILES)
< 0.1 | 207 to 209 °C and 209 to 210 °C | c1ccc(Nc2csc(-c3cn[nH]c3)n2)nc1 [Compound 1-1, 2-(1H-Pyrazol-4-yl)-N-(pyridin-2-yl)thiazol-4-amine]
0.1 to 1 |  | c1ccc(Nc2nsc(-c3cn[nH]c3)n2)nc1 [Compound 1-2, 5-(1H-Pyrazol-4-yl)-N-(pyridin-2-yl)-1,2,4-thiadiazol-3-amine]
< 0.1 | 238 to 240 °C | Fc1cccc(Nc2csc(-c3cn[nH]c3)n2)n1 [Compound 1-3, N-(6-Fluoropyridin-2-yl)-2-(1H-pyrazol-4-yl)thiazol-4-amine]
0.1 to 1 | 230 to 232 °C | Cc1ccnc(Nc2csc(-c3cn[nH]c3)n2)n1 [Compound 1-4, N-(4-Methylpyrimidin-2-yl)-2-(1H-pyrazol-4-yl)thiazol-4-amine]
0.1 to 1 | 250 to 252 °C | COc1ccnc(Nc2csc(-c3cn[nH]c3)n2)n1 [Compound 1-5, N-(4-Methoxypyrimidin-2-yl)-2-(1H-pyrazol-4-yl)thiazol-4-amine]
0.1 to 1 |  | Cc1cccc(Nc2csc(-c3cn[nH]c3)n2)n1 [Compound 1-6, N-(6-Methylpyridin-2-yl)-2-(1H-pyrazol-4-yl)thiazol-4-amine]
< 0.1 | 217 °C (dec.) | c1cnc(Nc2csc(-c3cn[nH]c3)n2)nc1 [Compound 1-7, 2-(1H-Pyrazol-4-yl)-N-(pyrimidin-2-yl)thiazol-4-amine]
0.1 to 1 | 204 to 206 °C | FC(F)(F)c1n[nH]cc1-c1nc(Nc2ccccn2)cs1 [Compound 1-8, N-(Pyridin-2-yl)-2-(3-(trifluoromethyl)-1H-pyrazol-4-yl)thiazol-4-amine]
< 0.1 | 141.3 °C | c1ccc(Nc2csc(-c3c[nH]nc3C3CC3)n2)nc1 [Compound 1-9, 2-(3-Cyclopropyl-1H-pyrazol-4-yl)-N-(pyridin-2-yl)thiazol-4-amine]
< 0.1 | 241 °C | c1cnc(Nc2csc(-c3c[nH]nc3C3CC3)n2)nc1 [Compound 1-10, 2-(3-Cyclopropyl-1H-pyrazol-4-yl)-N-(pyrimidin-2-yl)thiazol-4-amine]
< 0.1 |  | FC(F)(F)c1n[nH]cc1-c1nc(Nc2ncccn2)cs1 [Compound 1-11, N-(Pyrimidin-2-yl)-2-(3-(trifluoromethyl)-1H-pyrazol-4-yl)thiazol-4-amine]
